Measured values: patent US10377770B2 (Novartis AG, priority 2015, dated 2019)

Target: C-Raf FL (full length CRAF with Y340E and Y341E activating mutations, co-expressed with h14-3-3 zeta) (Homo sapiens (Human), UniProt P04049, Y340E/Y341E)
Assay: In vitro Raf activity determination, AlphaScreen p-MEK readout, c-Raf (C-Raf FL)
Type: biochemical
Conditions: c-Raf approximately 4 nM, ATP 1 μM, pre-incubation 60 minutes, reaction 1 hour
From the text: Sf9 cells co-expressing both proteins were lysed and subjected to immobilized nickel chromatography and eluted with Imidazole. A second column (StrepII binding column) was used and eluted with desthiobiotin. Protein Tags were removed using Prescission enzyme and the protein was further purified using a flowthrough step to remove tags.
C-Raf TR refers to a truncated C-Raf protein, a Δ1-324 deletion mutant. C-Raf FL refers to the full-length C-Raf protein.
Full length MEK1 with an inactivating K97R ATP binding site mutation is utilized as a RAF substrate. The MEK1 cDNA was subcloned with an N-terminal (his)6 tag into a vector for E. Coli expression. The MEK1 substrate was purified from E. Coli lysate by nickel affinity chromatography followed by anion exchange. The final MEK1 preparation was biotinylated (Pierce EZ-Link Sulfo-NHS-LC-Biotin) and concentrated.
Assay Materials: Assay buffer is 50 mM Tris, pH 7.5, 15 mM MgCl2, 0.01% Bovine Serum Albumin (BSA) and 1 mM dithiothreitol (DTT); Stop buffer is 60 mM ethylenediaminetetraacetic acid (EDTA) and 0.01% Tween® 20; b-Raf (V600E), active; biotinylated Mek, kinase dead; Alpha Screen detection kit (available from PerkinElmer™, #6760617R); Anti phospho-MEK1/2 (available from Cell Signaling Technology, Inc. #9121); 384 well low volume assay plates (White Greiner® plates).
Assay conditions: b-Raf (V600E) approximately 4 pM; c-Raf approximately 4 nM; biotinylated Mek, kinase dead approximately 10 nM; ATP 10 μM for BRAF (V600E) and 1 μM for CRAF; Pre-incubation time with compounds 60 minutes at room temperature; Reaction time 1 or 3 hours at room temperature.
Assay protocol: Raf and biotinylated Mek (kinase dead) were combined at 2× final concentrations in assay buffer (50 mM Tris, pH 7.5, 15 mM MgCl2, 0.01% BSA and 1 mM DTT) and dispensed […] per well in assay plates (Greiner white 384 well assay plates #781207) containing […] of 40× of a Raf kinase inhibitor test compound diluted in 100% DMSO. The plate was incubated for 60 minutes at room temperature. The Raf kinase activity reaction was started by the addition of […] per well of 2×ATP diluted in assay buffer. After 3 hours (b-Raf(V600E)) or 1 hour (c-Raf). The reactions were stopped and the phosphorylated product was measured using a rabbit anti-p-MEK (Cell Signaling, #9121) antibody and the Alpha Screen IgG (ProteinA) detection Kit (PerkinElmer #6760617R), by the addition of […] to the well of a mixture of the antibody (1:2000 dilution) and detection beads (1:2000 dilution of both beads) in Stop/bead buffer (25 mM EDTA, 50 mM Tris, pH 7.5, 0.01% Tween20). The additions were carried out under dark conditions to protect the detection beads from light. A lid was placed on top of the plate and incubated for 1 hour at room temperature, after which the luminescence was read on a PerkinElmer Envision instrument.

Chain of C-Raf FL (full length CRAF with Y340E and Y341E activating mutations, co-expressed with h14-3-3 zeta) (P04049 whole entry Y340E/Y341E): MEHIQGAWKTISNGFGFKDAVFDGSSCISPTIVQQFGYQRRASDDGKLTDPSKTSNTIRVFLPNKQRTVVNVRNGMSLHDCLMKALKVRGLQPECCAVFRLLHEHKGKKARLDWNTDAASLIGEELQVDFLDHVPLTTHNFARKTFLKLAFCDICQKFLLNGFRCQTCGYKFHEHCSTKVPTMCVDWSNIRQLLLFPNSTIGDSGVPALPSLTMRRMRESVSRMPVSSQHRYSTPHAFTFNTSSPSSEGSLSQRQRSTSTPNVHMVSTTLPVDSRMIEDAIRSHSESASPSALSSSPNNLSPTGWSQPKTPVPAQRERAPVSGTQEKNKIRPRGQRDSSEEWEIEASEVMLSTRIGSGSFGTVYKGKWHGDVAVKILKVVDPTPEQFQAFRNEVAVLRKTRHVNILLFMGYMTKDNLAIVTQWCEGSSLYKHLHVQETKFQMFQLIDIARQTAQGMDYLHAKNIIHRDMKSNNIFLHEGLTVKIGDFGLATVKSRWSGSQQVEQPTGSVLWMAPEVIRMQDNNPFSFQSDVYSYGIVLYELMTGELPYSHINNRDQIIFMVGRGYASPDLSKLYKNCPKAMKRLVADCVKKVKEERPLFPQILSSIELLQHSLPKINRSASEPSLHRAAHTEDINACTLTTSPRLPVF
Chain of C-Raf FL (full length CRAF with Y340E and Y341E activating mutations, co-expressed with h14-3-3 zeta) (P63104 whole entry partner): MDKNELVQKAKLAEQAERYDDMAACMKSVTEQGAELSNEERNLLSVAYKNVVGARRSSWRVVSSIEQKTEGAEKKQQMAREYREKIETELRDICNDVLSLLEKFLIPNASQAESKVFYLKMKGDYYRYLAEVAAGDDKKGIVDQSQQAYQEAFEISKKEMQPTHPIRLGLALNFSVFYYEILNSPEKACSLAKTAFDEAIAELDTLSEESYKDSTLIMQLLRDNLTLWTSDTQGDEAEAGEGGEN

Question: Which IC50 does the source give for Cc1ccc(NC(=O)c2ccnc(C(F)(F)F)c2)cc1-c1ccc2c(c1)N1CCOC[C@H]1C[C@H]2O (racemic) [Example 3, (rac)-(trans)-N-(3-(6-hydroxy-1,2,4,4a,5,6-hexahydro-[1,4]oxazino[4,3-a]quinolin-9-yl)-4-methylphenyl)-2-(trifluoromethyl)isonicotinamide] here?
Answer: 0.031 nM

Question: Which IC50 does the source give for Cc1ccc(NC(=O)c2ccnc(C(C)(F)F)c2)cc1-c1ccc2c(c1)N1CCOCC1CC2O (racemic) [Example 6, (rac)-2-(1,1-difluoroethyl)-N-(3-(6-hydroxy-1,2,4,4a,5,6-hexahydro-[1,4]oxazino[4,3-a]quinolin-9-yl)-4-methylphenyl)isonicotinamide] here?
Answer: 0.076 nM

Question: Cc1ccc(NC(=O)c2ccnc(C(C)(C)F)c2)cc1-c1ccc2c(c1)N1CCOCC1CC2O (racemic) [Example 7, (rac)-2-(2-fluoropropan-2-yl)-N-(3-(6-hydroxy-1,2,4,4a,5,6-hexahydro-[1,4]oxazino[4,3-a]quinolin-9-yl)-4-methylphenyl)isonicotinamide] was tested. Which IC50 did it give?
Answer: 0.033 nM

Question: For Cc1ccc(NC(=O)c2ccnc(C(C)(C)C#N)c2)cc1-c1ccc2c(c1)N1CCOCC1CC2O (racemic) [Example 8, (rac)-2-(2-cyanopropan-2-yl)-N-(3-(6-hydroxy-1,2,4,4a,5,6-hexahydro-[1,4]oxazino[4,3-a]quinolin-9-yl)-4-methylphenyl)isonicotinamide], which IC50 is on record?
Answer: 0.19 nM

Question: How did the IC50 turn out when Cc1ncc(NC(=O)c2cccc(C(F)(F)F)c2)cc1-c1ccc2c(c1)N1CCOCC1CC2O (racemic) [Example 9, (rac)-N-(5-(6-hydroxy-1,2,4,4a,5,6-hexahydro-[1,4]oxazino[4,3-a]quinolin-9-yl)-6-methylpyridin-3-yl)-3-(trifluoromethyl)benzamide] was run?
Answer: 0.051 nM

Question: For Cc1ccc(NC(=O)c2cnnc(C(F)(F)F)c2)cc1-c1ccc2c(c1)N1CCOCC1CC2O (racemic) [Example 10, (rac)-N-(3-(6-hydroxy-1,2,4,4a,5,6-hexahydro-[1,4]oxazino[4,3-a]quinolin-9-yl)-4-methylphenyl)-6-(trifluoromethyl)pyridazine-4-carboxamide], which IC50 is on record?
Answer: 0.036 nM

Question: Which IC50 does the source give for Cc1ncc(NC(=O)c2ccnc(C(C)(F)F)c2)cc1-c1ccc2c(c1)N1CCOCC1CC2O (racemic) [Example 11, (rac)-2-(1,1-difluoroethyl)-N-(5-(6-hydroxy-1,2,4,4a,5,6-hexahydro-[1,4]oxazino[4,3-a]quinolin-9-yl)-6-methylpyridin-3-yl)isonicotinamide] here?
Answer: 0.0098 nM

Question: Which IC50 does the source give for Cc1ccc(NC(=O)c2ccnc(C(C)(F)F)c2)cc1-c1ccc2c(c1)N1CCOCC1CC2O (racemic) [Example 16, (rac)-2-(1,1-difluoroethyl)-N-(3-(6-hydroxy-1,2,4,4a,5,6-hexahydro-[1,4]oxazino[4,3-a]quinolin-9-yl)-4-methylphenyl)isonicotinamide] here?
Answer: 0.055 nM

Question: How did the IC50 turn out when Cc1ccc(NC(=O)c2ccnc(C(C)(C)F)c2)cc1-c1ccc2c(c1)N1CCOCC1CC2O (racemic) [Example 17, (rac)-2-(2-fluoropropan-2-yl)-N-(3-(6-hydroxy-1,2,4,4a,5,6-hexahydro-[1,4]oxazino[4,3-a]quinolin-9-yl)-4-methylphenyl)isonicotinamide] was run?
Answer: 0.046 nM

Question: Cc1ccc(NC(=O)c2ccnc(C(F)(F)F)c2)cc1-c1ccc2c(c1)N1CCOCC1CC2 (racemic) [Example 21, (rac)-N-(3-(1,2,4,4a,5,6-hexahydro-[1,4]oxazino[4,3-a]quinolin-9-yl)-4-methylphenyl)-2-(trifluoromethyl)isonicotinamide] was tested. Which IC50 did it give?
Answer: 0.0012 nM

Question: How did the IC50 turn out when Cc1ccc(NC(=O)c2ccnc(C(F)(F)F)c2)cc1-c1ccc2c(c1)N1CCOCC1CC2(C)O (racemic) [Example 22, (rac)-N-(3-(6-hydroxy-6-methyl-1,2,4,4a,5,6-hexahydro-[1,4]oxazino[4,3-a]quinolin-9-yl)-4-methylphenyl)-2-(trifluoromethyl)isonicotinamide] was run?
Answer: 0.23 nM

Question: With Cc1ccc(NC(=O)c2ccnc(C(C)(F)F)c2)cc1-c1ccc2c(c1)N1CCOCC1CC2(C)O (racemic) [Example 23] as the molecule, how does the IC50 read?
Answer: 0.046 nM

Question: Which IC50 does the source give for Cc1ccc(NC(=O)c2ccnc(C(C)(F)F)c2)cc1-c1ccc2c(c1)N1CCOC[C@]1(C)C[C@H]2O (racemic) [Example 27] here?
Answer: 0.017 nM

Question: How did the IC50 turn out when Cc1ccc(NC(=O)c2ccnc(C(F)(F)F)c2)cc1-c1ccc2c(c1)N1CCOCC1CC2N (racemic) [Example 28, (rac)-N-(3-(6-amino-1,2,4,4a,5,6-hexahydro-[1,4]oxazino[4,3-a]quinolin-9-yl)-4-methylphenyl)-2-(trifluoromethyl)isonicotinamide] was run?
Answer: 0.059 nM

Question: How did the IC50 turn out when CC(=O)NC1CC2COCCN2c2cc(-c3cc(NC(=O)c4ccnc(C(F)(F)F)c4)ccc3C)ccc21 (racemic) [Example 29, N-(3-(6-acetamido-1,2,4,4a,5,6-hexahydro-[1,4]oxazino[4,3-a]quinolin-9-yl)-4-methylphenyl)-2-(trifluoromethyl)isonicotinamide] was run?
Answer: 0.17 nM

Question: How did the IC50 turn out when CO[C@@H]1C[C@@H]2COCCN2c2cc(-c3cc(NC(=O)c4ccnc(C(F)(F)F)c4)ccc3C)ccc21 (racemic) [Example 30, (rac)-(trans)-N-(3-(6-methoxy-1,2,4,4a,5,6-hexahydro-[1,4]oxazino[4,3-a]quinolin-9-yl)-4-methylphenyl)-2-(trifluoromethyl)isonicotinamide] was run?
Answer: 0.18 nM

Question: Which IC50 does the source give for CO[C@@H]1C[C@@H]2COCCN2c2cc(-c3cc(NC(=O)c4ccnc(C(C)(F)F)c4)cnc3C)ccc21 (racemic) [Example 31, (rac)-(trans)-2-(1,1-difluoroethyl)-N-(5-(6-methoxy-1,2,4,4a,5,6-hexahydro-[1,4]oxazino[4,3-a]quinolin-9-yl)-6-methylpyridin-3-yl)isonicotinamide] here?
Answer: 0.033 nM

Question: For CO[C@@H]1C[C@@H]2COCCN2c2cc(-c3cc(NC(=O)c4cccc(C(F)(F)F)c4)cnc3C)ccc21 (racemic) [Example 32, (rac)-(trans)-N-(5-(6-methoxy-1,2,4,4a,5,6-hexahydro-[1,4]oxazino[4,3-a]quinolin-9-yl)-6-methylpyridin-3-yl)-3-(trifluoromethyl)benzamide], which IC50 is on record?
Answer: 0.023 nM

Question: For COC1CC2COCCN2c2cc(-c3cc(NC(=O)c4ccnc(C(F)(F)F)c4)ccc3C)cnc21 (racemic) [Example 34], which IC50 is on record?
Answer: 0.0087 nM

Question: Cc1ccc(NC(=O)c2ccnc(C(F)(F)F)c2)cc1-c1cnc2c(c1)N1CCOC[C@H]1C[C@@H]2O (racemic) [Example 37, (rac)-(cis)-N-(3-(6-hydroxy-1,2,4,4a,5,6-hexahydro-[1,4]oxazino[4,3-a][1,5]naphthyridin-9-yl)-4-methylphenyl)-2-(trifluoromethyl)isonicotinamide] was tested. Which IC50 did it give?
Answer: 0.0081 nM

Question: How did the IC50 turn out when Cc1ncc(NC(=O)c2cccc(C(F)(F)F)c2)cc1-c1cnc2c(c1)N1CCOC[C@H]1C[C@@H]2O (racemic) [Example 38, (rac)-(cis)-N-(5-(6-hydroxy-1,2,4,4a,5,6-hexahydro-[1,4]oxazino[4,3-a][1,5]naphthyridin-9-yl)-6-methylpyridin-3-yl)-3-(trifluoro-methyl)benzamide] was run?
Answer: 0.03 nM

Question: Which IC50 does the source give for Cc1ccc(NC(=O)c2ccnc(C(F)(F)F)c2)cc1-c1cnc2c(c1)N1CCOC[C@H]1C[C@@]2(C)O (racemic) [Example 39, (rac)-(trans)-N-(3-(6-hydroxy-6-methyl-1,2,4,4a,5,6-hexahydro-[1,4]oxazino[4,3-a][1,5]naphthyridin-9-yl)-4-methylphenyl)-2-(trifluoromethyl)isonicotinamide] here?
Answer: 0.0023 nM

Question: Cc1ccc(NC(=O)c2ccnc(C(F)(F)F)c2)cc1-c1cnc2c(c1)N1CCOC[C@H]1C[C@]2(C)O (racemic) [Example 40, (rac)-(cis)-N-(3-(6-hydroxy-6-methyl-1,2,4,4a,5,6-hexahydro-[1,4]oxazino[4,3-a][1,5]naphthyridin-9-yl)-4-methylphenyl)-2-(trifluoromethyl)isonicotinamide] was tested. Which IC50 did it give?
Answer: 0.066 nM
